The target of assay [1] is human recombinant GST cleaved CSNK1D (Homo sapiens (Human), UniProt P48730). As to the kind of experiment: Purified enzyme assay (ADP-Glo Kinase Assay). The class given is biochemical. To be noted: 2 nM CSNK1D, peptide substrate 150 μM, ATP 20 μM, 45 minutes room temperature. The method, then:
In this assay, CSNK1D phosphorylates a substrate peptide PLSRTL-pS-VASLPGL in the presence of ATP. […] This assay monitors CSNK1D kinase activity by measuring the amount of ADP produced in the assay. A substrate mix is prepared by diluting peptide substrate (final concentration 150 μM) with ATP (final concentration 20 μM) in assay buffer (50 mM Tris/HCl pH 7.4+10 mM MgCl2+1 mM DTT+0.1% BSA). The substrate mix is added to each well of a low volume, 384-well, white opaque plate. Test compounds were diluted in HBSS and added in a dose-response to the plate. To start the reaction, 2 nM of constitutively active human recombinant GST cleaved CSNK1D (University of Dundee, clone DU 19064, stored at 0.28 mg/mL in 50 mM Tris/HCl pH 7.5, 150 mM NaCl, 270 mM Sucrose, 0.1 mM EGTA, 0.1% 2-mercaptoethanol, 0.02% Brij-35.1 mM benzamidine, 0.2 mM PMSF) was added to each well and the plate centrifuged for 5 minutes at 1500 rpm. The total volume of each reaction is 5 ul (2 μL of substrate mix, 1 μL of diluted compounds, and 2 μL of human recombinant CSNK1D). The plates are incubated for 45 minutes at room temperature.
ADP was quantified using the ADP-Glo™ Kinase Assay. ADP-Glo Reagent (5 μL) was added to each well. After a 1 hour incubation at room temperature, Kinase Detection Reagent (10 μL) was added to each well and incubated for 30 minutes. Luminescence was measured on the Perkin Elmer Wallac EnVision 2104 Multi-label Reader. The raw data from the Envision is used to calculate percent activity.

Assay [2] concerns the target human CSNK1D tagged with nanoluciferase (Homo sapiens (Human), UniProt P48730). Briefly: Whole Cell nBRET CSNK1D Binding Assay. To be noted: living CHO cells stably expressing human CSNK1D-nanoluciferase; NanoBret tracer 130 nM; 2 hours 37° C.; read-out: CSNK1D BRET IC50. The method, then: This cellular binding assay uses a bioluminescence resonance energy transfer to measure human CSNK1D binding activity in living Chinese Hamster Ovary (CHO) cells that are stably expressing human CSNK1D tagged with nanoluciferase. The cells were grown to confluency in growth media (DMEM:F12, 50 u/mLPen/Strep, […] glutamine, and 0.6 mg/mL G418) in 10 cm^2 dishes. Cells were seeded onto white, opaque 384-well plates (Corning, cat #3704) at a density of 8,000 cells/well in serum-free OptiMEM and left to incubated overnight at 37° C., […]. The next day, test compounds were added in a dose response to the plate followed by a NanoBret tracer (130 nM). The plate is mixed on an orbital shaker for 30 seconds, then placed in a 37° C. incubator for 2 hours. NanoBret Nano-Glo Substrate solution (20 μL) is added to all wells and incubated for 3 minutes at room temperature. Donor (450 nm) and acceptor (630 nm) emissions are then measured within 10 minutes using a ClarioStar plate reader. The data is used to calculate millibret units, defined as (E630/E450)*1000. Bret emissions are then graphed against the log of compound concentrations and these graphs are used to determine the IC50 of each compound.
A general note: In BRET a luciferase serves as donor, and the signal depends on an acceptor being close.

Molecules are shown by their SMILES. pIC50: −log10 of the molar value. Some results are limits rather than exact numbers.

Results on 28 molecules are retold here after US20230339900A1, “CASEIN KINASE 1 DELTA MODULATORS” (Janssen Pharmaceutica NV, priority 2020, published 2023).

Chain of human CSNK1D tagged with nanoluciferase (P48730 whole entry): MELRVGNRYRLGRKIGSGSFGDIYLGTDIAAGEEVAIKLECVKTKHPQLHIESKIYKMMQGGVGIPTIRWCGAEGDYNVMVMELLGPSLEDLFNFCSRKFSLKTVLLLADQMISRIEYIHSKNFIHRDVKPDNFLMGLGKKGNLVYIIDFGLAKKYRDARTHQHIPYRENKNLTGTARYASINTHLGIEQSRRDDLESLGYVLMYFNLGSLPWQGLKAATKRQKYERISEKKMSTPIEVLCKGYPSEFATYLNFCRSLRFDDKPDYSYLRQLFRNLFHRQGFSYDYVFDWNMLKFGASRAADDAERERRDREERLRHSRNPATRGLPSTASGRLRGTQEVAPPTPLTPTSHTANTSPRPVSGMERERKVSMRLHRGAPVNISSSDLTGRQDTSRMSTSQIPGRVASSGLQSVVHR
Chain of human recombinant GST cleaved CSNK1D (P48730 whole entry): as above

One may read the AC50 as the concentration at which the activity in the assay is half-maximal. Usually pIC50 stands for −log10 of the IC50, conventionally taken in molar units. `Fc1ccc(-c2nn(C3CCOC3)cc2-c2ccnc3[nH]ccc23)nc1` (racemic) [Example 74, (R/S)-4-[3-(5-Fluoro-2-pyridyl)-1-tetrahydrofuran-3-yl-pyrazol-4-yl]-1H-pyrrolo[2,3-b]pyridine]: the AC50 in assay [1] came out at 0.036 µM. The pIC50 in assay [2] is 6.66.
The corresponding values for `Cn1cc(-c2ccnc3[nH]c(C4(O)CCOC4)cc23)c(-c2ccc(F)cn2)n1` (racemic) [Example 96, (R/S)-3-(4-(3-(5-Fluoropyridin-2-yl)-1-methyl-1H-pyrazol-4-yl)-1H-pyrrolo[2,3-b]pyridin-2-yl)tetrahydrofuran-3-ol] are 0.004 µM and 6.83.
Take `Cn1cc(-c2ccnc3[nH]cc(CC4CCOC4)c23)c(-c2ccc(F)cn2)n1` (racemic) [Example 97, (R/S)-4-[3-(5-Fluoro-2-pyridyl)-1-methyl-pyrazol-4-yl]-3-(tetrahydrofuran-3-ylmethyl)-1H-pyrrolo[2,3-b]pyridine]: the AC50 in assay [1] amounted to 0.384 µM. Besides, the pIC50 in assay [2] was < 5.00.
As for `CCC(=O)Nc1cc(-c2cn(C)nc2-c2ccc(F)cn2)ccn1` [Example 1, N-(4-(3-(5-Fluoropyridin-2-yl)-1-methyl-1H-pyrazol-4-yl)pyridin-2-yl)propionamide], the AC50 in assay [1] amounted to 0.005 µM. Besides, the pIC50 in assay [2] is 6.97.
The corresponding values for `Cn1cc(-c2ccnc3c2CCC3)c(-c2ccc(F)cn2)n1` [Example 2, 4-(3-(5-Fluoropyridin-2-yl)-1-methyl-1H-pyrazol-4-yl)-6,7-dihydro-5H-cyclopenta[b]pyridine] are 0.037 µM and 6.02.
`Cn1cc(-c2ccnc3c2CC(=O)N3)c(-c2ccc(F)cn2)n1` [Example 3, 4-(3-(5-Fluoropyridin-2-yl)-1-methyl-1H-pyrazol-4-yl)-1,3-dihydro-2H-pyrrolo[2,3-b]pyridin-2-one]: the AC50 in assay [1] was determined as 0.058 µM. Further, the pIC50 in assay [2] was 5.82.
The like results for `Cn1cc(-c2ccnc3cc[nH]c23)c(-c2ccc(F)cn2)n1` [Example 4, 7-(3-(5-Fluoropyridin-2-yl)-1-methyl-1H-pyrazol-4-yl)-1H-pyrrolo[3,2-b]pyridine] were, in that order, 0.118 µM and 5.63.
The like results for `Cn1cc(-c2ccnc3cn[nH]c23)c(-c2ccc(F)cn2)n1` [Example 5, 7-(3-(5-Fluoropyridin-2-yl)-1-methyl-1H-pyrazol-4-yl)-1H-pyrazolo[4,3-b]pyridine] were, in that order, 0.015 µM and 6.34.
Regarding `Cn1cc(-c2ccnc3[nH]ccc23)c(-c2cnco2)n1` [Example 6, 5-(1-Methyl-4-(1H-pyrrolo[2,3-b]pyridin-4-yl)-1H-pyrazol-3-yl)oxazole], the AC50 in assay [1] is 0.041 µM. For the same molecule, the pIC50 in assay [2] was 5.85.
The corresponding values for `Cn1cc(-c2ccnc3[nH]ccc23)c(-c2ncco2)n1` [Example 7, 2-(1-Methyl-4-(1H-pyrrolo[2,3-b]pyridin-4-yl)-1H-pyrazol-3-yl)oxazole] are 0.038 µM and 6.89.
With `Cc1cc(-c2cn(C)nc2-c2ncco2)c2cn[nH]c2n1` [Example 8, 2-(1-Methyl-4-(6-methyl-1H-pyrazolo[3,4-b]pyridin-4-yl)-1H-pyrazol-3-yl)oxazole], the AC50 in assay [1] stood at 0.783 µM. Moreover, the pIC50 in assay [2] was < 5.00.
In the case of `Cn1cnc(-c2nn(C)cc2-c2ccnc3[nH]ccc23)c1` [Example 9, 4-(1-Methyl-3-(1-methyl-1H-imidazol-4-yl)-1H-pyrazol-4-yl)-1H-pyrrolo[2,3-b]pyridine], in assay [1], the AC50 came to 0.016 µM. Besides, in assay [2], the pIC50 is 6.25.
The corresponding values for `Cn1cc(-c2ccnc3[nH]ccc23)c(-c2cncn2C)n1` [Example 10, 4-(1-Methyl-3-(1-methyl-1H-imidazol-5-yl)-1H-pyrazol-4-yl)-1H-pyrrolo[2,3-b]pyridine] are 2.28 µM and < 5.00.
The corresponding values for `Cn1cc(-c2ccnc3[nH]ccc23)c(-c2nccn2C)n1` [Example 11, 4-(1-Methyl-3-(1-methyl-1H-imidazol-2-yl)-1H-pyrazol-4-yl)-1H-pyrrolo[2,3-b]pyridine] are 0.111 µM and 5.36.
For the molecule `Cn1cc(-c2ccnc3[nH]ccc23)c(-c2ccns2)n1` [Example 12, 5-(1-Methyl-4-(1H-pyrrolo[2,3-b]pyridin-4-yl)-1H-pyrazol-3-yl)isothiazole], the AC50 in assay [1] is 0.05 µM. In assay [2], the pIC50 was 6.17.
The like results for `Cn1cc(-c2ccnc3[nH]ccc23)c(-c2cscn2)n1` [Example 13, 4-(1-Methyl-4-(1H-pyrrolo[2,3-b]pyridin-4-yl)-1H-pyrazol-3-yl)thiazole] were, in that order, 0.028 µM and 6.20.
The like results for `Cn1cc(-c2ccnc3[nH]ccc23)c(-c2cncs2)n1` [Example 14, 5-(1-Methyl-4-(1H-pyrrolo[2,3-b]pyridin-4-yl)-1H-pyrazol-3-yl)thiazole] were, in that order, 0.083 µM and 5.50.
The corresponding values for `Cn1cc(-c2ccnc3[nH]ccc23)c(-c2ccsn2)n1` [Example 15, 3-(1-Methyl-4-(1H-pyrrolo[2,3-b]pyridin-4-yl)-1H-pyrazol-3-yl)isothiazole] are 0.007 µM and 6.74.
Take `Cn1cc(-c2ccnc3[nH]ccc23)c(-c2nccs2)n1` [Example 16, 2-(1-Methyl-4-(1H-pyrrolo[2,3-b]pyridin-4-yl)-1H-pyrazol-3-yl)thiazole]: the AC50 in assay [1] worked out at 0.015 µM. In addition, in assay [2], the pIC50 is 6.50.
The corresponding values for `Cn1cc(-c2ccnc3[nH]ccc23)c(-c2ccncc2)n1` [Example 17, 4-[1-Methyl-3-(4-pyridyl)pyrazol-4-yl]-1H-pyrrolo[2,3-b]pyridine] are 0.101 µM and 5.78.
The corresponding values for `Cn1cc(-c2ccnc3[nH]ccc23)c(-c2ccncc2F)n1` [Example 18, 4-[3-(3-Fluoro-4-pyridyl)-1-methyl-pyrazol-4-yl]-1H-pyrrolo[2,3-b]pyridine] are 0.026 µM and 5.75.
Regarding `Cn1cc(-c2ccnc3[nH]ncc23)c(-c2ccncc2F)n1` [Example 19, 4-[3-(3-Fluoro-4-pyridyl)-1-methyl-pyrazol-4-yl]-1H-pyrazolo[3,4-b]pyridine], in assay [1], the AC50 worked out at 0.092 µM. Moreover, the pIC50 in assay [2] is 6.10.
`Cn1cc(-c2ccnc3[nH]ccc23)c(-c2cncc(F)c2)n1` [Example 21, 4-[3-(5-Fluoro-3-pyridyl)-1-methyl-pyrazol-4-yl]-1H-pyrrolo[2,3-b]pyridine]: in assay [1], the AC50 amounted to 0.014 µM. Also, the pIC50 in assay [2] is 6.45.
The like results for `Cc1ccc(-c2nn(C)cc2-c2ccnc3[nH]ccc23)cn1` [Example 22, 4-[1-Methyl-3-(6-methyl-3-pyridyl)pyrazol-4-yl]-1H-pyrrolo[2,3-b]pyridine] were, in that order, 0.044 µM and 5.93.
For the molecule `Cn1cc(-c2ccnc3[nH]ccc23)c(-c2ccc(OC(F)F)nc2)n1` [Example 23, 4-[3-[6-(Difluoromethoxy)-3-pyridyl]-1-methyl-pyrazol-4-yl]-1H-pyrrolo[2,3-b]pyridine], the AC50 in assay [1] was found to be 0.551 µM. Besides, the pIC50 in assay [2] is < 5.00.
Turning to `Cn1cc(-c2ccnc3[nH]ccc23)c(-c2ccc(Cl)cn2)n1` [Example 24, 4-[3-(5-Chloro-2-pyridyl)-1-methyl-pyrazol-4-yl]-1H-pyrrolo[2,3-b]pyridine], in assay [1], the AC50 was 0.034 µM. Further, the pIC50 in assay [2] was 6.60.
For `Cn1cc(-c2ccnc3[nH]ncc23)c(-c2ccc(Cl)cn2)n1` [Example 25, 4-(3-(5-Chloropyridin-2-yl)-1-methyl-1H-pyrazol-4-yl)-1H-pyrazolo[3,4-b]pyridine], in assay [1], the AC50 is 0.693 µM. In addition, the pIC50 in assay [2] was 6.51.
`Cn1cc(-c2ccnc3[nH]c(C4COC4)cc23)c(-c2ccc(F)cn2)n1` [Example 92, 4-(3-(5-Fluoropyridin-2-yl)-1-methyl-1H-pyrazol-4-yl)-2-(oxetan-3-yl)-1H-pyrrolo[2,3-b]pyridine]: the pIC50 in assay [2] is 6.74.
